Data published in US12234247B2, “Heterocyclic compound and harmful arthropod-controlling composition containing same” (SUMITOMO CHEMICAL COMPANY, LIMITED, priority 2019, dated 2025).

Test system: cotton aphids (Aphis gossypil)
Experiment: Test method 1: foliar spray on cucumber seedlings infested with cotton aphids
Type: in vivo
Conditions: 200 ppm, spray 10 mL/seedling, counted 5 days after spraying, 25° C.
Experimental: Next, Test Examples are used to show effects of the Present compounds on harmful arthropods. In the following Test Examples, the tests were carried out at 25° C. […] Cucumber (Cucumis sativus) seedlings (on the developmental stage of the second true leaf) are planted in a container and approximately 30 cotton aphids (Aphis gossypil) (all stages of life) are released onto the cucumber seedlings. After 1 day, each of said diluted solutions is sprayed into the seedlings in a ratio of 10 mL/seedling. After additional 5 days, the number of the surviving insects is examined and the controlling value is calculated by the following equation. Controlling value (%)={1-(Cb×Tai)/(Cai×Tb)}×100 wherein the symbols in the equation represent the following meanings. • Cb: Number of the test insects in non-treated area; • Cai: Number of the surviving insects at the time of the investigation in non-treated area; • Tb: Number of the test insects in treated area; • Tai: Number of the surviving insects at the time of the investigation in treated area; Here, the “non-treated area” represents an area where the same treatment procedure as that of the treated area is done except for not using each test compound.

SMILES: CCS(=O)(=O)c1c(-n2nc3ccc(C(F)(F)F)cn3c2=O)nc2ccc(C(F)(F)F)cn12 [compound 2]
- controlling value: ≥ 90%
